Assays:
[1] = tested on: RXF-393; assay: NCI 60 cell-line screen, RXF-393 (Kidney); format: cell-based, human; details: averaged, quadruplicate testing, 48 h, SRB
Experimental: (§1) The NCI screen consists of a panel of 60 different human tumor cell lines against which compounds are tested over a defined range of concentrations to determine the relative degree of growth inhibition or cytotoxicity against each cell line. The design and operation of the screen is such that for each compound tested, both the absolute and relative sensitivities of individual cell lines comprising the screen are sufficiently reproducible that a characteristic profile or “fingerprint” of cellular response is generated. Compounds which are active in the NCI screen show pronounced differential tumor growth-inhibitory and/or cytotoxic effects to the diverse cell lines comprising the 60 cell-line panel. The degree of differential response between the most and least sensitive lines typically may be relatively small (e.g., 2- to 10-fold), or occasionally as great as 3-4 orders of magnitude. […]
(§2) In the screening assay, each agent is tested over a broad concentration range against every cell line in the panel. […] Test compounds are evaluated at five 10-fold dilutions. […] Optical densities are measured on automated plate readers, followed by computerized data acquisition, processing, storage, and availability for display and analysis. […]

[2] = tested on: EKVX; assay: NCI 60 cell-line screen, EKVX (Lung); format: cell-based, human; details: averaged, quadruplicate testing, 48 h, SRB
Experimental: as §1, §2

[3] = tested on: OVCAR-4; assay: NCI 60 cell-line screen, OVCAR-4 (Ovary); format: cell-based, human; details: averaged, quadruplicate testing, 48 h, SRB
Experimental: as §1, §2

[4] = tested on: UO-31; assay: NCI 60 cell-line screen, UO-31 (Kidney); format: cell-based, human; details: averaged, quadruplicate testing, 48 h, SRB
Experimental: as §1, §2

[5] = tested on: panel of 60 different human tumor cell lines; assay: NCI 60 cell-line human tumor screen, whole panel; format: cell-based
Experimental: as §1, §2
Three additional numbers are printed at the base of each of the three respective mean-graphs. […] The MG-MID is the calculated mean panel GI50, TGI, or LC50. […]

[6] = tested on: IGROVI; assay: NCI 60 cell-line screen, IGROVI (Ovary); format: cell-based, human; details: averaged, quadruplicate testing, 48 h, SRB
Experimental: as §1, §2

[7] = tested on: SR; assay: NCI 60 cell-line screen, SR (Leukemia); format: cell-based, human; details: averaged, quadruplicate testing, 48 h, SRB
Experimental: as §1, §2

[8] = tested on: UACC-257; assay: NCI 60 cell-line screen, UACC-257 (Melanoma); format: cell-based, human; details: averaged, quadruplicate testing, 48 h, SRB
Experimental: as §1, §2

[9] = tested on: MDA-MB-231/ATCC; assay: NCI 60 cell-line screen, MDA-MB-231/ATCC (Breast); format: cell-based, human; details: averaged, quadruplicate testing, 48 h, SRB
Experimental: as §1, §2

[10] = tested on: HT29; assay: NCI 60 cell-line screen, HT29 (Colon); format: cell-based, human; details: averaged, quadruplicate testing, 48 h, SRB
Experimental: as §1, §2

[11] = tested on: HOP-62; assay: NCI 60 cell-line screen, HOP-62 (Lung); format: cell-based, human; details: averaged, quadruplicate testing, 48 h, SRB
Experimental: as §1, §2

[12] = tested on: SK-MEL-28; assay: NCI 60 cell-line screen, SK-MEL-28 (Melanoma); format: cell-based, human; details: averaged, quadruplicate testing, 48 h, SRB
Experimental: as §1, §2

[13] = tested on: NCI-H226; assay: NCI 60 cell-line screen, NCI-H226 (Lung); format: cell-based, human; details: averaged, quadruplicate testing, 48 h, SRB
Experimental: as §1, §2

[14] = tested on: SK-OV-3; assay: NCI 60 cell-line screen, SK-OV-3 (Ovary); format: cell-based, human; details: averaged, quadruplicate testing, 48 h, SRB
Experimental: as §1, §2

[15] = tested on: SN-12C; assay: NCI 60 cell-line screen, SN-12C (Kidney); format: cell-based, human; details: averaged, quadruplicate testing, 48 h, SRB
Experimental: as §1, §2

[16] = tested on: ACHN; assay: NCI 60 cell-line screen, ACHN (Kidney); format: cell-based, human; details: averaged, quadruplicate testing, 48 h, SRB
Experimental: as §1, §2

[17] = tested on: HL-60-TB; assay: NCI 60 cell-line screen, HL-60-TB (Leukemia); format: cell-based, human; details: averaged, quadruplicate testing, 48 h, SRB
Experimental: as §1, §2

[18] = tested on: RPMI-8226; assay: NCI 60 cell-line screen, RPMI-8226 (Leukemia); format: cell-based, human; details: averaged, quadruplicate testing, 48 h, SRB
Experimental: as §1, §2

[19] = tested on: NCI-H522; assay: NCI 60 cell-line screen, NCI-H522 (Lung); format: cell-based, human; details: averaged, quadruplicate testing, 48 h, SRB
Experimental: as §1, §2

[20] = tested on: A549/ATCC; assay: NCI 60 cell-line screen, A549/ATCC (Lung); format: cell-based, human; details: averaged, quadruplicate testing, 48 h, SRB
Experimental: as §1, §2

[21] = tested on: MOLT-4; assay: NCI 60 cell-line screen, MOLT-4 (Leukemia); format: cell-based, human; details: averaged, quadruplicate testing, 48 h, SRB
Experimental: as §1, §2

[22] = tested on: MDA-MB-435; assay: NCI 60 cell-line screen, MDA-MB-435 (Breast); format: cell-based, human; details: averaged, quadruplicate testing, 48 h, SRB
Experimental: as §1, §2

[23] = tested on: TK-10; assay: NCI 60 cell-line screen, TK-10 (Kidney); format: cell-based, human; details: averaged, quadruplicate testing, 48 h, SRB
Experimental: as §1, §2

[24] = tested on: HCC-2998; assay: NCI 60 cell-line screen, HCC-2998 (Colon); format: cell-based, human; details: averaged, quadruplicate testing, 48 h, SRB
Experimental: as §1, §2

[25] = tested on: DU-145; assay: NCI 60 cell-line screen, DU-145 (Prostate); format: cell-based, human; details: averaged, quadruplicate testing, 48 h, SRB
Experimental: as §1, §2

[26] = tested on: SF-539; assay: NCI 60 cell-line screen, SF-539 (Brain); format: cell-based, human; details: averaged, quadruplicate testing, 48 h, SRB
Experimental: as §1, §2

[27] = tested on: T-47D; assay: NCI 60 cell-line screen, T-47D (Breast); format: cell-based, human; details: averaged, quadruplicate testing, 48 h, SRB
Experimental: as §1, §2

[28] = tested on: U251; assay: NCI 60 cell-line screen, U251 (Brain); format: cell-based, human; details: averaged, quadruplicate testing, 48 h, SRB
Experimental: as §1, §2

[29] = tested on: SNB-75; assay: NCI 60 cell-line screen, SNB-75 (Brain); format: cell-based, human; details: averaged, quadruplicate testing, 48 h, SRB
Experimental: as §1, §2

[30] = tested on: LOX-IMVI; assay: NCI 60 cell-line screen, LOX-IMVI (Melanoma); format: cell-based, human; details: averaged, quadruplicate testing, 48 h, SRB
Experimental: as §1, §2

[31] = tested on: SF-268; assay: NCI 60 cell-line screen, SF-268 (Brain); format: cell-based, human; details: averaged, quadruplicate testing, 48 h, SRB
Experimental: as §1, §2

salicylihalamide A was tested, and the “negative log10 GI50” value [1] was 9.07, the “negative log10 GI50” value [2] was 7.52 and the “negative log10 GI50” value [3] was 5.30. For the same substance, the “negative log10 GI50” value [4] was 8.31, the GI50 ([5]; mean over the NCI 60 cell-line panel, read-out: mean panel GI50 concentration) was about 15 nM and the “range of differential sensitivity among the 60 cell-lines” value ([5]; most vs least sensitive lines of the NCI panel) was “greater than or equal to 10^3”. The “negative log10 GI50” value [6] was 7.89, the “negative log10 GI50” value [7] was 8.44 and the “negative log10 GI50” value [8] was 8.47. The “negative log10 GI50” value [9] was 6.92, the “negative log10 GI50” value [10] was 8.54 and the “negative log10 GI50” value [11] was 8.38. The “negative log10 GI50” value [12] was 7.00, the “negative log10 GI50” value [13] was 8.80 and the “negative log10 GI50” value [14] was 5.54. The “negative log10 GI50” value [15] was 7.77, the “negative log10 GI50” value [16] was 8.01 and the “negative log10 GI50” value [17] was 9.04. For the same substance, the “negative log10 GI50” value [18] was 7.89, the “negative log10 GI50” value [19] was 7.26 and the “negative log10 GI50” value [20] was 8.54. For the same substance, the “negative log10 GI50” value [21] was 7.96, the “negative log10 GI50” value [22] was 7.82 and the “negative log10 GI50” value [23] was 5.74. For the same substance, the “negative log10 GI50” value [24] was 6.74, the “negative log10 GI50” value [25] was 8.26 and the “negative log10 GI50” value [26] was 7.89. The “negative log10 GI50” value [27] was 8.34, the “negative log10 GI50” value [28] was 7.57 and the “negative log10 GI50” value [29] was 6.21. For the same substance, the “negative log10 GI50” value [30] was 9.11 and the “negative log10 GI50” value [31] was 7.55.

Reference: patent US6353019B1, “Macrocyclic lactones, compositions, and methods of use” (United States of America as represented by the Department …, priority 1997, dated 2002)
